Experimental data published in patent US10590140B2, “Tetrahydropyrimidodiazepine and dihydropyridodiazepine compounds for treating pain and pain related conditions” (ESTEVE PHARMACEUTICALS, S.A., priority 2016, dated 2020).
Read-outs that look alike come from different tables or passages of the source.

Key:
[1] = target: human α2δ-1 subunit of Cav2.2 calcium channel (Homo sapiens (Human), UniProt P54289); assay: Binding assay to human α2δ-1 subunit of Cav2.2 calcium channel ([3H]-Gabapentin); details: read-out: Ki (nM) α2δ-1
In short: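 [3H]-gabapentin binding, 60 min at 27° C; nonspecific binding defined with 10 μM pregabalin. Terminated by filtration on PEI-presoaked GF/C filters, ice-cold 50 mM Tris-HCl pH 7.4 washes, then scintillation counting.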

[2] = target: human norepinephrine transporter (NET) (Homo sapiens (Human), UniProt P23975); assay: Binding assay to human norepinephrine transporter (NET) ([3H]-Nisoxetin); details: Table 2, dual compounds; [3H]-Nisoxetin binding
Experimental: Binding Assay to Human Norepinephrine Transporter (NET).
Human norepinephrine transporter (NET) enriched membranes (5 μg) were incubated with 5 nM of radiolabeled [3H]-Nisoxetin in assay buffer containing 50 mM Tris-HCl, 120 mM NaCl, 5 mM KCl, pH 7.4.
NSB (non specific binding) was measured by adding 1 μM. After 60 min incubation at 4° C., binding reaction was terminated by filtering through Multiscreen GF/C (Millipore) presoaked in 0.5% polyethyleneimine in Vacuum Manifold Station, followed by 3 washes with ice-cold filtration buffer containing 50 mM Tris-HCl, 0.9% NaCl, pH 7.4.
Filter plates were dried at 60° C. for 1 hour and 30 μl of scintillation cocktail were added to each well before radioactivity reading.

[3] = Table 2, dual compounds, [3H]-Gabapentin binding
[4] = binding to α2δ-1, [3H]-Gabapentin

human α2δ-1 subunit of Cav2.2 calcium channel, sequence (P54289 25-1103): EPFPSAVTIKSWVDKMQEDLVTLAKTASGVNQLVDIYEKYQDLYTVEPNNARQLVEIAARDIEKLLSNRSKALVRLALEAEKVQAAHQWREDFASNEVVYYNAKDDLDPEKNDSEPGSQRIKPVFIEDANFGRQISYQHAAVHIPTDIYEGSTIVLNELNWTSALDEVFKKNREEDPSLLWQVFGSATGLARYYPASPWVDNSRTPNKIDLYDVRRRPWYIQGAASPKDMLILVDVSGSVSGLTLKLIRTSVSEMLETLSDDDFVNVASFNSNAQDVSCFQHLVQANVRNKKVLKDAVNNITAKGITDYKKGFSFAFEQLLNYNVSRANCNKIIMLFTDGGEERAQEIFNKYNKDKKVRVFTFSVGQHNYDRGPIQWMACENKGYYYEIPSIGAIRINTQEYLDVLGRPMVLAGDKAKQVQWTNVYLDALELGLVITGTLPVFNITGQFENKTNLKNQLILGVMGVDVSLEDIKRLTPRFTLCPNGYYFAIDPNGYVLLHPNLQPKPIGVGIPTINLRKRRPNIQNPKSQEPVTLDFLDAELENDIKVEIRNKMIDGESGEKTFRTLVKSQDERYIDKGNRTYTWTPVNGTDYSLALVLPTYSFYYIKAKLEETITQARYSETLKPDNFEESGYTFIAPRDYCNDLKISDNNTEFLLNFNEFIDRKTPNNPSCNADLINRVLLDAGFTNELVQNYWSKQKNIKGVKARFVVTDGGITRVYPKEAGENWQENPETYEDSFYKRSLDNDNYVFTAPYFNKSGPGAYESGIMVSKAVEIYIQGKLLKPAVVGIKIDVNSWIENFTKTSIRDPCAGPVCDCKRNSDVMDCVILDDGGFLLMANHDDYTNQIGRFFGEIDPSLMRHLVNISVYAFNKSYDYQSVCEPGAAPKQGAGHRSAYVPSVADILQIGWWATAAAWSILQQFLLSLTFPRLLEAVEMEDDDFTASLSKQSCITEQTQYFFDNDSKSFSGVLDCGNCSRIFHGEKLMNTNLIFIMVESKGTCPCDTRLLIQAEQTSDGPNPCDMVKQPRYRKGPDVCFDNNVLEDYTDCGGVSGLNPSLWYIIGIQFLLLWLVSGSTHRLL
human norepinephrine transporter (NET), sequence (P23975 whole entry): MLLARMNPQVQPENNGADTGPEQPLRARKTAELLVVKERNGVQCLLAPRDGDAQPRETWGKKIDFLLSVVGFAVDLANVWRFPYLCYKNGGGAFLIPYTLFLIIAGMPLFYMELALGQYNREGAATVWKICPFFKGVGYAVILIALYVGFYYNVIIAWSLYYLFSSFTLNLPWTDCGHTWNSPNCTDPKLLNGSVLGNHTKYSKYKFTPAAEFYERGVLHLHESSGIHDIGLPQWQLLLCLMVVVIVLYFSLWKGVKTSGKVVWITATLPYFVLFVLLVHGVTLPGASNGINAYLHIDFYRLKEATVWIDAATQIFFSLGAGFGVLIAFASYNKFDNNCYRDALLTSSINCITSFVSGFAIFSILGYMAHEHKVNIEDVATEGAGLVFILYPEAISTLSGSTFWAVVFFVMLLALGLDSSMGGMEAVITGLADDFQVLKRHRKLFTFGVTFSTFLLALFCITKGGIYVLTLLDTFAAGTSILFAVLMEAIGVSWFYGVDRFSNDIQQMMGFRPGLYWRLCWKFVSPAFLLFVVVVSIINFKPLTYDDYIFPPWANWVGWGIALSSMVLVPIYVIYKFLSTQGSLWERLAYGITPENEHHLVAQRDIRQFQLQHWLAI

CNCCC(Oc1cccc(N2CCN(C)c3nc(SC)ncc3C2=O)c1)c1ccccc1 (stereo not shown) [Example 151, 9-methyl-6-(3-(3-(methylamino)-1-phenylpropoxy)phenyl)-2-(methylthio)-6,7,8,9-tetrahydro-5H-pyrimido[4,5-e][1,4]diazepin-5-one]
Ki [1, 3]: 500 to 3000 nM
Ki [1, 4]: 500 to 3000 nM
Ki [2]: < 100 nM

CNCC[C@@H](Oc1cccc(N2CCN(C)c3nc(SC)ncc3C2=O)c1)c1ccccc1 [Example 152, (R)-9-methyl-6-(3-(3-(methylamino)-1-phenylpropoxy)phenyl)-2-(methylthio)-6,7,8,9-tetrahydro-5H-pyrimido[4,5-e][1,4]diazepin-5-one]
Ki [1, 3]: 500 to 3000 nM
Ki [1, 4]: 500 to 3000 nM
Ki [2]: 100 to 500 nM

CNCC[C@H](Oc1cccc(N2CCN(C)c3nc(SC)ncc3C2=O)c1)c1ccccc1 [Example 153, (S)-9-methyl-6-(3-(3-(methylamino)-1-phenylpropoxy)phenyl)-2-(methylthio)-6,7,8,9-tetrahydro-5H-pyrimido[4,5-e][1,4]diazepin-5-one]
Ki [1, 3]: > 3000 nM
Ki [1, 4]: > 3000 nM
Ki [2]: < 100 nM

CCNc1ncc2c(n1)N(C)CCN(c1cccc(OC(CNC)c3ccccc3)c1)C2=O (stereo not shown) [Example 154, 2-(ethylamino)-9-methyl-6-(3-(2-(methylamino)-1-phenylethoxy)phenyl)-6,7,8,9-tetrahydro-5H-pyrimido[4,5-e][1,4]diazepin-5-one]
Ki [1, 3]: 500 to 3000 nM
Ki [1, 4]: 500 to 3000 nM
Ki [2]: 100 to 500 nM

CCNc1ncc2c(n1)N(C)CCN(c1ccc(OC(CNC)c3ccccc3)cc1)C2=O (stereo not shown) [Example 159, 2-(ethylamino)-9-methyl-6-(4-(2-(methylamino)-1-phenylethoxy)phenyl)-6,7,8,9-tetrahydro-5H-pyrimido[4,5-e][1,4]diazepin-5-one]
Ki [1, 3]: > 3000 nM
Ki [1, 4]: > 3000 nM
Ki [2]: > 1000 nM

CNCCC(OCc1cccc(N2CCN(C)c3nc(SC)ncc3C2=O)c1)c1ccccc1 (stereo not shown) [Example 163, 9-methyl-6-(3-((3-(methylamino)-1-phenylpropoxy)methyl)phenyl)-2-(methylthio)-6,7,8,9-tetrahydro-5H-pyrimido[4,5-e][1,4]diazepin-5-one]
Ki [1, 3]: 500 to 3000 nM
Ki [1, 4]: 500 to 3000 nM
Ki [2]: 100 to 500 nM

CNCC[C@@H](OCc1cccc(N2CCN(C)c3nc(SC)ncc3C2=O)c1)c1ccccc1 [Example 164, (R)-9-methyl-6-(3-((3-(methylamino)-1-phenylpropoxy)methyl)phenyl)-2-(methylthio)-6,7,8,9-tetrahydro-5H-pyrimido[4,5-e][1,4]diazepin-5-one]
Ki [1, 3]: 100 to 500 nM
Ki [1, 4]: 100 to 500 nM
Ki [2]: 100 to 500 nM

CNCC[C@H](OCc1cccc(N2CCN(C)c3nc(SC)ncc3C2=O)c1)c1ccccc1 [Example 165, (S)-9-methyl-6-(3-((3-(methylamino)-1-phenylpropoxy)methyl)phenyl)-2-(methylthio)-6,7,8,9-tetrahydro-5H-pyrimido[4,5-e][1,4]diazepin-5-one]
Ki [1, 3]: > 3000 nM
Ki [1, 4]: > 3000 nM
Ki [2]: 100 to 500 nM

CNCC[C@H](Oc1ccc(CN2CCN(C)c3nc(OC)ncc3C2=O)c(C)c1)c1cccs1 [Example 397, (S)-2-methoxy-9-methyl-6-(2-methyl-4-(3-(methylamino)-1-(thiophen-2-yl)propoxy)benzyl)-6,7,8,9-tetrahydro-5H-pyrimido[4,5-e][1,4]diazepin-5-one]
Ki [1, 4]: < 100 nM

CCN1CCN(Cc2ccc(O[C@@H](CCNC)c3cccs3)cc2)C(=O)c2cncnc21 [Example 398, (S)-9-ethyl-6-(4-(3-(methylamino)-1-(thiophen-2-yl)propoxy)benzyl)-6,7,8,9-tetrahydro-5H-pyrimido[4,5-e][1,4]diazepin-5-one]
Ki [1, 4]: 100 to 500 nM

CNCC[C@H](Oc1ccc(CN2CCN(C)c3c(F)cncc3C2=O)cc1)c1cccs1 [Example 399, (S)-9-fluoro-1-methyl-4-(4-(3-(methylamino)-1-(thiophen-2-yl)propoxy)benzyl)-1,2,3,4-tetrahydro-5H-pyrido[4,3-e][1,4]diazepin-5-one]
Ki [1, 4]: 100 to 500 nM

CNCC[C@H](Oc1ccc(CN2CCN(C)c3c(Cl)cncc3C2=O)cc1)c1cccs1 [Example 400, (S)-9-chloro-1-methyl-4-(4-(3-(methylamino)-1-(thiophen-2-yl)propoxy)benzyl)-1,2,3,4-tetrahydro-5H-pyrido[4,3-e][1,4]diazepin-5-one]
Ki [1, 4]: 500 to 3000 nM

CNCC[C@H](Oc1ccc(CN2CCN(C)c3nc(OC)ncc3C2=O)c(F)c1)c1cccs1 [Example 401, (S)-6-(2-fluoro-4-(3-(methylamino)-1-(thiophen-2-yl)propoxy)benzyl)-2-methoxy-9-methyl-6,7,8,9-tetrahydro-5H-pyrimido[4,5-e][1,4]diazepin-5-one]
Ki [1, 4]: < 100 nM

CCNc1ncc2c(n1)N(C)CCN(Cc1ccccc1COC(CCNC)c1ccccc1)C2=O (stereo not shown) [Example 404, 2-(ethylamino)-9-methyl-6-(2-((3-(methylamino)-1-phenylpropoxy)methyl)benzyl)-6,7,8,9-tetrahydro-5H-pyrimido[4,5-e][1,4]diazepin-5-one]
Ki [1, 4]: > 3000 nM

CCNc1ncc2c(n1)N(C)CCN(Cc1cccc(OC(CCNC)c3ccccc3)c1)C2=O (stereo not shown) [Example 407, 2-(ethylamino)-9-methyl-6-(3-(3-(methylamino)-1-phenylpropoxy)benzyl)-6,7,8,9-tetrahydro-5H-pyrimido[4,5-e][1,4]diazepin-5-one]
Ki [1, 4]: 100 to 500 nM

CCNc1ncc2c(n1)N(C)CCN(Cc1ccccc1OC(CCNC)c1ccccc1)C2=O (stereo not shown) [Example 409, 2-(ethylamino)-9-methyl-6-(2-(3-(methylamino)-1-phenylpropoxy)benzyl)-6,7,8,9-tetrahydro-5H-pyrimido[4,5-e][1,4]diazepin-5-one]
Ki [1, 4]: > 3000 nM

CCNc1ncc2c(n1)N(C)CCN(Cc1ccccc1OC(CNC)c1ccccc1)C2=O (stereo not shown) [Example 410, 2-(ethylamino)-9-methyl-6-(2-(2-(methylamino)-1-phenylethoxy)benzyl)-6,7,8,9-tetrahydro-5H-pyrimido[4,5-e][1,4]diazepin-5-one]
Ki [1, 4]: > 3000 nM

CCNc1ncc2c(n1)N(C)CCN(Cc1ccccc1COC(CNC)c1ccccc1)C2=O (stereo not shown) [Example 412, 2-(ethylamino)-9-methyl-6-(2-((2-(methylamino)-1-phenylethoxy)methyl)benzyl)-6,7,8,9-tetrahydro-5H-pyrimido[4,5-e][1,4]diazepin-5-one]
Ki [1, 4]: > 3000 nM

CNCCC(OCc1ccccc1CN1CCN(C)c2nc(C)ncc2C1=O)c1ccccc1 (stereo not shown) [Example 421, 2,9-dimethyl-6-(2-((3-(methylamino)-1-phenylpropoxy)methyl)benzyl)-6,7,8,9-tetrahydro-5H-pyrimido[4,5-e][1,4]diazepin-5-one]
Ki [1, 4]: > 3000 nM

CNCC(OCc1ccccc1CN1CCN(C)c2nc(C)ncc2C1=O)c1ccccc1 (stereo not shown) [Example 424, 2,9-dimethyl-6-(2-((2-(methylamino)-1-phenylethoxy)methyl)benzyl)-6,7,8,9-tetrahydro-5H-pyrimido[4,5-e][1,4]diazepin-5-one]
Ki [1, 4]: > 3000 nM

CNCCC(Oc1cccc(CN2CCN(C)c3ncncc3C2=O)c1)c1ccccc1 (stereo not shown) [Example 429, 9-methyl-6-(3-(3-(methylamino)-1-phenylpropoxy)benzyl)-6,7,8,9-tetrahydro-5H-pyrimido[4,5-e][1,4]diazepin-5-one]
Ki [1, 4]: > 3000 nM

CNCCC(Oc1ccccc1CN1CCN(C)c2ncncc2C1=O)c1ccccc1 (stereo not shown) [Example 431, 9-methyl-6-(2-(3-(methylamino)-1-phenylpropoxy)benzyl)-6,7,8,9-tetrahydro-5H-pyrimido[4,5-e][1,4]diazepin-5-one]
Ki [1, 4]: > 3000 nM

CNCC(Oc1ccccc1CN1CCN(C)c2ncncc2C1=O)c1ccccc1 (stereo not shown) [Example 432, 9-methyl-6-(2-(2-(methylamino)-1-phenylethoxy)benzyl)-6,7,8,9-tetrahydro-5H-pyrimido[4,5-e][1,4]diazepin-5-one]
Ki [1, 4]: > 3000 nM

CCNc1ncc2c(n1)N(C)CCN(c1cccc(CCN3CCC(c4ccccc4)(N(C)C)CC3)c1)C2=O [Example 438, 6-(3-(2-(4-(dimethylamino)-4-phenylpiperidin-1-yl)ethyl)phenyl)-2-(ethylamino)-9-methyl-6,7,8,9-tetrahydro-5H-pyrimido[4,5-e][1,4]diazepin-5-one]
Ki [1, 4]: 500 to 3000 nM

CCNc1ncc2c(n1)N(C)CCN(c1cccc(OCCN3CCCCC3)c1)C2=O [Example 439, 2-(ethylamino)-9-methyl-6-(3-(2-(piperidin-1-yl)ethoxy)phenyl)-6,7,8,9-tetrahydro-5H-pyrimido[4,5-e][1,4]diazepin-5-one]
Ki [1, 4]: 500 to 3000 nM

CCNc1ncc2c(n1)N(C)CCN(c1cccc(OCCN3CCOCC3)c1)C2=O [Example 440, 2-(ethylamino)-9-methyl-6-(3-(2-morpholinoethoxy)phenyl)-6,7,8,9-tetrahydro-5H-pyrimido[4,5-e][1,4]diazepin-5-one]
Ki [1, 4]: 500 to 3000 nM

CCNc1ncc2c(n1)N(C)CCN(c1cccc(-c3nnc(CN4CCC(c5ccccc5)(N(C)C)CC4)o3)c1)C2=O [Example 441, 6-(3-(5-((4-(dimethylamino)-4-phenylpiperidin-1-yl)methyl)-1,3,4-oxadiazol-2-yl)phenyl)-2-(ethylamino)-9-methyl-6,7,8,9-tetrahydro-5H-pyrimido[4,5-e][1,4]diazepin-5-one]
Ki [1, 4]: 100 to 500 nM
